Results published in patent US20060046968A1, “Prodrug substituted benzoxazoles as estrogenic agents” (priority 2004, published 2006).

Experiments:
Assay type in all cases: in vivo
Male HLA-B27 rats [1] = experiment: HLA-B27 rat test for inflammatory bowel disease: histological scoring of colon; conditions: Study B, oral 4 weeks
Method: Representative metabolites of compounds of the invention were evaluated in the HLA rat standard pharmacological test procedure, which emulates inflammatory bowel disease in humans. The following briefly describes the procedure used and results obtained. […] Louis) and water. Stool quality was observed daily and graded according to the following scale: Diarrhea=3; soft stool=2; normal stool=1. At the end of the study, serum was collected and stored at −70° C. A section of colon was prepared for histological analysis and an additional segment was analyzed for myeloperoxidase activity. In Study A, rats (22-26 weeks old) were dosed subcutaneously once per day for seven days with one of the regimens listed below. […] Histological analysis. Colonic tissue was immersed in 10% neutral buffered formalin. Each specimen of colon was separated into four samples for evaluation. The formalin-fixed tissues were processed in a Tissue-Tek® vaccum infiltration processor (Miles, Inc; West Haven, Conn.) for paraffin embedding. The samples were sectioned at 5 μm and then stained with hematoxylin and eosin (H&E) for blinded histological evaluations using a scale modified after Boughton-Smith. After the scores were completed, the samples were unblinded, and data were tabulated and analyzed by ANOVA linear modeling with multiple mean comparisons. Sections of colonic tissue were evaluated for several disease indicators and given relative scores.

[2] = tested on: Sexually immature 129 SvE mice; experiment: Mouse uterotrophic test procedure (Procedure 2); conditions: compound 50 mg/kg s.c., days 22-25
Male HLA-B27 rats [3] = experiment: HLA-B27 rat model of arthritis: joint scores; conditions: Study 2
Male HLA-B27 rats [4] = experiment: HLA rat test for inflammatory bowel disease: stool character (3 = diarrhea; 2 = soft stool; 1 = normal stool); conditions: Study B
[5] = tested on: Progesterone receptor mRNA; experiment: Progesterone receptor mRNA regulation in the preoptic area of the rat brain; conditions: 10 mg/kg
[6] = 10 mg/kg days 1-14, then 20 mg/kg
[7] = oral 20 mg/kg (10 mg/kg days 1-14), Day 16
[8] = oral 20 mg/kg (10 mg/kg days 1-14), Day 17
[9] = oral 20 mg/kg (10 mg/kg days 1-14), Day 19
[10] = oral 20 mg/kg (10 mg/kg days 1-14), Day 22
[11] = oral 20 mg/kg (10 mg/kg days 1-14), Day 23
[12] = oral 20 mg/kg (10 mg/kg days 1-14), Day 26

C=Cc1cc(O)cc2nc(-c3ccc(O)cc3F)oc12 [Example 25, 2-(2-FLUORO-4-HYDROXYPHENYL)-7-VINYL-1,3-BENZOXAZOL-5-OL]
Fibrosis (0-2), mean ± SD (Male HLA-B27 rats [1]; [6]): 0.31 ± 0.13
Inflammation (0-3), mean ± SD (Male HLA-B27 rats [1]; [6]): 1.50 ± 0.35
Lesion depth (0-2), mean ± SD (Male HLA-B27 rats [1]; [6]): 0.44 ± 0.24
Total score, mean ± SD (Male HLA-B27 rats [1]; [6]): 2.69 ± 0.52
Ulceration (0-2), mean ± SD (Male HLA-B27 rats [1]; [6]): 0.44 ± 0.24
mean uterine weight ± SEM [2]: 9.7 ± 1.0 mg
Joint inflammation score (Male HLA-B27 rats [3]; oral 10 mg/kg, Day 1): 0
Joint inflammation score (Male HLA-B27 rats [3]; oral 10 mg/kg, Day 2): 0
Joint inflammation score (Male HLA-B27 rats [3]; oral 10 mg/kg, Day 3): 0
Joint inflammation score (Male HLA-B27 rats [3]; oral 10 mg/kg, Day 4): 0
Joint inflammation score (Male HLA-B27 rats [3]; oral 10 mg/kg, Day 5): 0
Joint inflammation score (Male HLA-B27 rats [3]; oral 10 mg/kg, Day 6): 0
Joint inflammation score (Male HLA-B27 rats [3]; oral 10 mg/kg, Day 7): 0
Joint inflammation score (Male HLA-B27 rats [3]; oral 10 mg/kg, Day 8): 1
Joint inflammation score (Male HLA-B27 rats [3]; oral 10 mg/kg, Day 10): 2.25
Joint inflammation score (Male HLA-B27 rats [3]; oral 10 mg/kg, Day 11): 2.25
Joint inflammation score (Male HLA-B27 rats [3]; oral 20 mg/kg (10 mg/kg days 1-14), Day 15): 3.75
Joint inflammation score (Male HLA-B27 rats [3]; [7]): 3
Joint inflammation score (Male HLA-B27 rats [3]; [8]): 2.75
Joint inflammation score (Male HLA-B27 rats [3]; [9]): 1.5
Joint inflammation score (Male HLA-B27 rats [3]; [10]): 1.25
Joint inflammation score (Male HLA-B27 rats [3]; [11]): 2.5
Joint inflammation score (Male HLA-B27 rats [3]; [12]): 1.75
Stool Character (group's average score) (Male HLA-B27 rats [4]; oral 10 mg/kg, Day 1): 1
Stool Character (group's average score) (Male HLA-B27 rats [4]; oral 10 mg/kg, Day 2): 1
Stool Character (group's average score) (Male HLA-B27 rats [4]; oral 10 mg/kg, Day 3): 1.25
Stool Character (group's average score) (Male HLA-B27 rats [4]; oral 10 mg/kg, Day 4): 1.25
Stool Character (group's average score) (Male HLA-B27 rats [4]; oral 10 mg/kg, Day 5): 1.75
Stool Character (group's average score) (Male HLA-B27 rats [4]; oral 10 mg/kg, Day 6): 1.5
Stool Character (group's average score) (Male HLA-B27 rats [4]; oral 10 mg/kg, Day 9): 1.75
Stool Character (group's average score) (Male HLA-B27 rats [4]; oral 10 mg/kg, Day 10): 1.5
Stool Character (group's average score) (Male HLA-B27 rats [4]; oral 10 mg/kg, Day 12): 1.75
Stool Character (group's average score) (Male HLA-B27 rats [4]; oral 10 mg/kg, Day 13): 2.25
Stool Character (group's average score) (Male HLA-B27 rats [4]; [7]): 1.5
Stool Character (group's average score) (Male HLA-B27 rats [4]; [8]): 1.5
Stool Character (group's average score) (Male HLA-B27 rats [4]; oral 20 mg/kg (10 mg/kg days 1-14), Day 18): 1.5
Stool Character (group's average score) (Male HLA-B27 rats [4]; [9]): 1.25
Stool Character (group's average score) (Male HLA-B27 rats [4]; [10]): 1.25
Stool Character (group's average score) (Male HLA-B27 rats [4]; [11]): 1.25
Stool Character (group's average score) (Male HLA-B27 rats [4]; oral 20 mg/kg (10 mg/kg days 1-14), Day 24): 1.25
Stool Character (group's average score) (Male HLA-B27 rats [4]; oral 20 mg/kg (10 mg/kg days 1-14), Day 25): 1.25
Stool Character (group's average score) (Male HLA-B27 rats [4]; [12]): 1.25
Progesterone receptor mRNA (mean ± stdev) [5]: 447.0 ± 60.7 arbitrary units

C=Cc1cc(O)cc2nc(-c3ccc(O)c(F)c3F)oc12 [Example 26, 2-(2,3-DIFLUORO-4-HYDROXYPHENYL)-7-VINYL-1,3-BENZOXAZOL-5-OL]
mean uterine weight ± SEM [2]: 9.0 ± 0.3 mg
Progesterone receptor mRNA (mean ± stdev) [5]: 467.8 ± 66.7 arbitrary units

C=CCc1cc(O)cc2nc(-c3ccc(O)c(F)c3)oc12 [Example 34, 7-ALLYL-2-(3-FLUORO-4-HYDROXYPHENYL)-1,3-BENZOXAZOL-5-OL]
Fibrosis (0-2), mean ± SD (Male HLA-B27 rats [1]; 10 mg/kg): 0.31 ± 0.32
Inflammation (0-3), mean ± SD (Male HLA-B27 rats [1]; 10 mg/kg): 1.81 ± 0.13
Lesion depth (0-2), mean ± SD (Male HLA-B27 rats [1]; 10 mg/kg): 0.63 ± 0.32
Total score, mean ± SD (Male HLA-B27 rats [1]; 10 mg/kg): 3.50 ± 1.10
Ulceration (0-2), mean ± SD (Male HLA-B27 rats [1]; 10 mg/kg): 0.75 ± 0.46
Joint inflammation score (Male HLA-B27 rats [3]; oral 10 mg/kg, Day 1): 0
Joint inflammation score (Male HLA-B27 rats [3]; oral 10 mg/kg, Day 2): 0
Joint inflammation score (Male HLA-B27 rats [3]; oral 10 mg/kg, Day 3): 0
Joint inflammation score (Male HLA-B27 rats [3]; oral 10 mg/kg, Day 4): 0
Joint inflammation score (Male HLA-B27 rats [3]; oral 10 mg/kg, Day 5): 0
Joint inflammation score (Male HLA-B27 rats [3]; oral 10 mg/kg, Day 6): 0
Joint inflammation score (Male HLA-B27 rats [3]; oral 10 mg/kg, Day 7): 0
Joint inflammation score (Male HLA-B27 rats [3]; oral 10 mg/kg, Day 8): 0.25
Joint inflammation score (Male HLA-B27 rats [3]; oral 10 mg/kg, Day 9): 0.75
Joint inflammation score (Male HLA-B27 rats [3]; oral 10 mg/kg, Day 10): 0.5
Joint inflammation score (Male HLA-B27 rats [3]; oral 10 mg/kg, Day 11): 0.5
Joint inflammation score (Male HLA-B27 rats [3]; oral 10 mg/kg, Day 12): 0.25
Joint inflammation score (Male HLA-B27 rats [3]; oral 10 mg/kg, Day 13): 0.5
Joint inflammation score (Male HLA-B27 rats [3]; oral 10 mg/kg, Day 14): 0
Joint inflammation score (Male HLA-B27 rats [3]; oral 10 mg/kg, Day 15): 0.5
Joint inflammation score (Male HLA-B27 rats [3]; oral 10 mg/kg, Day 16): 0.5
Joint inflammation score (Male HLA-B27 rats [3]; oral 10 mg/kg, Day 17): 0.25
Joint inflammation score (Male HLA-B27 rats [3]; oral 10 mg/kg, Day 18): 0.75
Joint inflammation score (Male HLA-B27 rats [3]; oral 10 mg/kg, Day 19): 1
Joint inflammation score (Male HLA-B27 rats [3]; oral 10 mg/kg, Day 22): 1
Joint inflammation score (Male HLA-B27 rats [3]; oral 10 mg/kg, Day 23): 1.75
Joint inflammation score (Male HLA-B27 rats [3]; oral 10 mg/kg, Day 24): 1.75
Joint inflammation score (Male HLA-B27 rats [3]; oral 10 mg/kg, Day 25): 2
Joint inflammation score (Male HLA-B27 rats [3]; oral 10 mg/kg, Day 26): 3
Stool Character (group's average score) (Male HLA-B27 rats [4]; oral 10 mg/kg, Day 1): 1
Stool Character (group's average score) (Male HLA-B27 rats [4]; oral 10 mg/kg, Day 2): 1
Stool Character (group's average score) (Male HLA-B27 rats [4]; oral 10 mg/kg, Day 3): 1
Stool Character (group's average score) (Male HLA-B27 rats [4]; oral 10 mg/kg, Day 4): 1.25
Stool Character (group's average score) (Male HLA-B27 rats [4]; oral 10 mg/kg, Day 5): 2
Stool Character (group's average score) (Male HLA-B27 rats [4]; oral 10 mg/kg, Day 6): 1.75
Stool Character (group's average score) (Male HLA-B27 rats [4]; oral 10 mg/kg, Day 7): 1.75
Stool Character (group's average score) (Male HLA-B27 rats [4]; oral 10 mg/kg, Day 8): 1.5
Stool Character (group's average score) (Male HLA-B27 rats [4]; oral 10 mg/kg, Day 9): 1.5
Stool Character (group's average score) (Male HLA-B27 rats [4]; oral 10 mg/kg, Day 10): 1.25
Stool Character (group's average score) (Male HLA-B27 rats [4]; oral 10 mg/kg, Day 11): 1.5
Stool Character (group's average score) (Male HLA-B27 rats [4]; oral 10 mg/kg, Day 12): 1.5
Stool Character (group's average score) (Male HLA-B27 rats [4]; oral 10 mg/kg, Day 13): 1.25
Stool Character (group's average score) (Male HLA-B27 rats [4]; oral 10 mg/kg, Day 14): 1.25
Stool Character (group's average score) (Male HLA-B27 rats [4]; oral 10 mg/kg, Day 15): 1.25
Stool Character (group's average score) (Male HLA-B27 rats [4]; oral 10 mg/kg, Day 16): 1
Stool Character (group's average score) (Male HLA-B27 rats [4]; oral 10 mg/kg, Day 17): 1
Stool Character (group's average score) (Male HLA-B27 rats [4]; oral 10 mg/kg, Day 18): 1.25
Stool Character (group's average score) (Male HLA-B27 rats [4]; oral 10 mg/kg, Day 19): 1
Stool Character (group's average score) (Male HLA-B27 rats [4]; oral 10 mg/kg, Day 22): 1
Stool Character (group's average score) (Male HLA-B27 rats [4]; oral 10 mg/kg, Day 23): 1
Stool Character (group's average score) (Male HLA-B27 rats [4]; oral 10 mg/kg, Day 24): 1
Stool Character (group's average score) (Male HLA-B27 rats [4]; oral 10 mg/kg, Day 25): 1
Stool Character (group's average score) (Male HLA-B27 rats [4]; oral 10 mg/kg, Day 26): 1
Progesterone receptor mRNA (mean ± stdev) [5]: 511.5 ± 23.7 arbitrary units
